The assay concerns Ga16-expressing cells, calcium fluorescence, agonist counterscreen. The assay is described as follows: Ga16 cell calcium activation, concentration series – fluorescence, dose response, counter-screen for TAAR1 antagonist project, late-stage follow-up (AID 743236).

In general, EC50 refers to the concentration giving half of the maximal effect.

Active and inactive are the calls of the source. No rule for the calls is given here.

As to `Cc1nn(Cc2c(F)c(F)c(F)c(F)c2F)c(C)c1NC(=O)c1ccc(COc2ccccc2Cl)cc1`, the EC50 was > 29.9 µM (inactive).

For `Cc1ccc(CSCC(=O)Nc2cc(S(=O)(=O)N3CCOCC3)ccc2OCC(F)(F)F)cc1`, the EC50 was > 29.9 µM (inactive).

Turning to `Cc1cccc(C(C#N)c2nc3ccccc3nc2C(F)(F)F)c1` (centres undefined), the EC50 was > 29.9 µM (inactive).

On to `COc1cccc(-c2nn(-c3ccccc3)cc2C(=O)Nc2nccs2)c1`, for which the EC50 was > 29.9 µM (inactive).

Take `CC(=O)c1ccc(NC(=O)c2ccc(COc3ccccc3[N+](=O)[O-])o2)cc1`: the EC50 was > 29.9 µM (inactive).

Turning to `CCCCC(=O)Nc1ccc(C(=O)Nc2ccc(S(=O)(=O)N3CCCC3)cc2)cc1`, the EC50 is > 29.9 µM (inactive).

On to `O=C(NCCn1cc(SCc2ccccc2F)c2ccccc21)c1c(F)cccc1F`, for which the EC50 is > 29.9 µM (inactive).

For the compound `Cc1coc(NC(=O)CSc2nc(-c3ccc(Cl)cc3)cc(C(F)(F)F)c2C#N)n1`, the EC50 is > 29.9 µM (inactive).

For `COc1cc(NC(=O)c2cc3ccccc3o2)c(OC)cc1Cl`, the EC50 was > 29.9 µM (inactive).

The values are drawn from PubChem BioAssay AID743236 (The Scripps Research Institute Molecular Screening Center, 2013).
